Measurements reported in patent US20250064941A1, “SIGLEC LIGANDS, CONJUGATES, AND METHODS OF USE THEREOF” (Osprey Biopharmaceuticals, Inc., priority 2023, published 2025).

What was measured:
[1] = target: T1, human Siglec-2/CD22 protein (Homo sapiens, UniProt P20273); test: SPR binding affinity to human CD22; conditions: steady-state analysis
T1 construct: purchased Acro Biosystems SI2-H82E3
T1 sequence (P20273 20-847): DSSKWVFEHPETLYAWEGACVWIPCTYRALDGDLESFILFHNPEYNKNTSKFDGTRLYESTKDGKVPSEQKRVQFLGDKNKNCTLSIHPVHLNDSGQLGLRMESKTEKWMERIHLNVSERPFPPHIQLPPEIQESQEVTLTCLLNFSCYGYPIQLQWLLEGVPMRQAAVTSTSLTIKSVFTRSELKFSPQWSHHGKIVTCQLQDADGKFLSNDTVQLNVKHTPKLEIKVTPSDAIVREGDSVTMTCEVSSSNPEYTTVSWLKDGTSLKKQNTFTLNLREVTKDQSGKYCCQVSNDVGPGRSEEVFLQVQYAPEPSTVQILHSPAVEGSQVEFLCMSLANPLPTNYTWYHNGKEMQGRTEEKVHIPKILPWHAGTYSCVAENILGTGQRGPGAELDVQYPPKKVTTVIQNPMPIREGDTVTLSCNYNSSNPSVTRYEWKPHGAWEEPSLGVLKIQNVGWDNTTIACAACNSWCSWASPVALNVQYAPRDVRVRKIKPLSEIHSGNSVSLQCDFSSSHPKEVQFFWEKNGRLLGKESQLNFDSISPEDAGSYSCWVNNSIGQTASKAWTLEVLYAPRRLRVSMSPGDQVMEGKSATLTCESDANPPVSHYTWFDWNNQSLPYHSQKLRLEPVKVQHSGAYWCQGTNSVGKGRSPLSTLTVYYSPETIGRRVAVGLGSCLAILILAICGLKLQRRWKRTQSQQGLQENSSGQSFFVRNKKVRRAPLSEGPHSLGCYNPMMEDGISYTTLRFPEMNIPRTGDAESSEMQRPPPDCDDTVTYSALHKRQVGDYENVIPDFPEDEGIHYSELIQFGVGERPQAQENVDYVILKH
Method: (§1) Prior to immobilization, CD22 proteins were treated with SialoExo (Genovis, Cat #G1-SM1-020) for 4 hours at 37° C. to remove native sialic acid residues.
(§2) Capture of biotinylated CD22 constructs was performed using a Cytiva SA chip (BR100398) on a Biacore 8K instrument.
(§3) Binding experiments of Siglec-ligand conjugated proteins or Siglec ligand compounds were performed on the surfaces prepared above in 10 mM HEPES, 150 mM NaCl, 0.05% Tween-20, pH 7.5, 1% DMSO as the running buffer. […] The compounds were then allowed to dissociate from the surface for 120 seconds. […] Solvent correction was performed using 0.5, 1, 1.5, and 2% DMSO spike into running buffer without DMSO. […] Data was analyzed using steady-state analysis in Biacore Insight Evaluation Software, version 3.0 for Siglec ligand compounds.

[2] = target: T2, mouse Siglec-2-Fc-Avi (CD22) (Mus musculus, UniProt P35329); test: SPR binding affinity to mouse CD22; conditions: steady-state analysis
T2 construct: made in house
T2 sequence (P35329 22-708 limits assumed): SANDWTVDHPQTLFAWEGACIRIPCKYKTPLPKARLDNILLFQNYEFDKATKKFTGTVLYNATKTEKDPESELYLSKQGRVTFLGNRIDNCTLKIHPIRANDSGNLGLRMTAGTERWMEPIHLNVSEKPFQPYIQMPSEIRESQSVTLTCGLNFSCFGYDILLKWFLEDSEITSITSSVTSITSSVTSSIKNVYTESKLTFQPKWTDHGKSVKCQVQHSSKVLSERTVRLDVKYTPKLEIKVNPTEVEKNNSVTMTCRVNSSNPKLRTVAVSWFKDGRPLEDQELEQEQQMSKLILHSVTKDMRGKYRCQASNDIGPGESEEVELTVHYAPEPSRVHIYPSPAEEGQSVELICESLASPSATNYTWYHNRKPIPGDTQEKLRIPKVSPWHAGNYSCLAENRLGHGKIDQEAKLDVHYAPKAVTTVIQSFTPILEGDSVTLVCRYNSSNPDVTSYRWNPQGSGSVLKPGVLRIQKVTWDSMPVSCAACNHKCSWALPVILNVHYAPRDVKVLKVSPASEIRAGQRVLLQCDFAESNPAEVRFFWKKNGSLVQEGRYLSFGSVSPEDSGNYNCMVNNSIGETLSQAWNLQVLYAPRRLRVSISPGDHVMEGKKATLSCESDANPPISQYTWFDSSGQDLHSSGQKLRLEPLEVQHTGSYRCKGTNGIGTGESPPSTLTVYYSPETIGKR
Method: as §1, §2, §3

SMILES | Kd [1] [nM] | Kd [2] [nM]
C#CCOCCCCCCS[C@]1(C(=O)O)C[C@H](O)[C@@H](NC(=O)CO)[C@H]([C@H](O)[C@H](O)CNC(=O)c2cccc(Oc3ccccc3)c2)O1 [Compound 255, (2S,4S,5R,6R)-6-((1R,2R)-1,2-dihydroxy-3-(3-phenoxybenzamido)propyl)-4-hydroxy-5-(2-hydroxyacetamido)-2-((6-(prop-2-yn-1-yloxy)hexyl)thio) tetrahydro-2H-pyran-2-carboxylic acid] | < 1000 | 1000 to 10000
C#CCOCCOCCO[C@]1(C(=O)O)C[C@H](O)[C@@H](NC(C)=O)[C@H]([C@H](O)[C@H](O)CNCc2cccc(Oc3ccccc3)c2)O1 [Compound 17, (2R,4S,5R,6R)-5-acetamido-6-((1R,2R)-1,2-dihydroxy-3-((3-phenoxybenzyl)amino)propyl)-4-hydroxy-2-(2-(2-(prop-2-yn-1-yloxy)ethoxy)ethoxy)tetrahydro-2H-pyran-2-carboxylic acid] | < 1000 | > 10000
CC(=O)NCCOCCOCCOCCOCCOC(=O)NCCCCCCO[C@]1(C(=O)O)C[C@H](O)[C@@H](NC(C)=O)[C@H]([C@H](O)[C@H](O)CNC(=O)c2cccc(Cl)c2)O1 [Compound 268, (2R,4S,5R,6R)-5-acetamido-6-((1R,2R)-3-(3-chlorobenzamido)-1,2-dihydroxypropyl)-2-((2,19-dioxo-6,9,12,15,18-pentaoxa-3,20-diazahexacosan-26-yl)oxy)-4-hydroxytetrahydro-2H-pyran-2-carboxylic acid] | 1000 to 10000 | > 10000
C#CCOCCOCCNc1c(NCCCCCCO[C@]2(C(=O)O)C[C@H](O)[C@@H](NC(=O)CO)[C@H]([C@H](O)[C@H](O)CNC(=O)c3ccccc3)O2)c(=O)c1=O [Compound 230, (2R,4S,5R,6R)-6-((1R,2R)-3-benzamido-1,2-dihydroxypropyl)-2-((6-((3,4-dioxo-2-((2-(2-(prop-2-yn-1-yloxy)ethoxy)ethyl)amino)cyclobut-1-en-1-yl)amino)hexyl)oxy)-4-hydroxy-5-(2-hydroxyacetamido)tetrahydro-2H-pyran-2-carboxylic acid] | 1000 to 10000 | 1000 to 10000
C#CCOP(=O)(O)OCCCCO[C@]1(C(=O)O)C[C@H](O)[C@@H](NC(=O)CO)[C@H]([C@H](O)[C@H](O)CNC(=O)Cc2ccc(Cl)cc2)O1 [Compound 115, (2R,4S,5R,6R)-6-((1R,2R)-3-(2-(4-chlorophenyl)acetamido)-1,2-dihydroxypropyl)-4-hydroxy-2-(4-((hydroxy(prop-2-yn-1-yloxy)phosphoryl)oxy)butoxy)-5-(2-hydroxyacetamido)tetrahydro-2H-pyran-2-carboxylic acid] | < 1000 | 1000 to 10000
CC(=O)NCCOCCOCCOCCOCCNC(=O)NCCCCCCO[C@]1(C(=O)O)C[C@H](O)[C@@H](NC(C)=O)[C@H]([C@H](O)[C@H](O)CNC(=O)c2cccc(Cl)c2)O1 [Compound 269, (2R,4S,5R,6R)-5-acetamido-6-((1R,2R)-3-(3-chlorobenzamido)-1,2-dihydroxypropyl)-2-((2,19-dioxo-6,9,12,15-tetraoxa-3,18,20-triazahexacosan-26-yl)oxy)-4-hydroxytetrahydro-2H-pyran-2-carboxylic acid] | 1000 to 10000 | > 10000
CC(=O)NCCOCCOCCOCCOCCNc1c(NCCCCCCO[C@]2(C(=O)O)C[C@H](O)[C@@H](NC(C)=O)[C@H]([C@H](O)[C@H](O)CNC(=O)Cc3ccc(Cl)cc3)O2)c(=O)c1=O [Compound 248, (2R,4S,5R,6R)-5-acetamido-6-((1R,2R)-3-(2-(4-chlorophenyl)acetamido)-1,2-dihydroxypropyl)-2-((6-((3,4-dioxo-2-((2-oxo-6,9,12,15-tetraoxa-3-azaheptadecan-17-yl)amino)cyclobut-1-en-1-yl)amino)hexyl)oxy)-4-hydroxytetrahydro-2H-pyran-2-carboxylic acid] | < 1000 | 1000 to 10000
CC(=O)NCCOCCOCCOCCOCCC(=O)NCCCCCO[C@]1(C(=O)O)C[C@H](O)[C@@H](NC(C)=O)[C@H]([C@H](O)[C@H](O)CNC(=O)Cc2ccc(Cl)cc2)O1 [Compound 249, (2R,4S,5R,6R)-5-acetamido-6-((1R,2R)-3-(2-(4-chlorophenyl)acetamido)-1,2-dihydroxypropyl)-2-((2,18-dioxo-6,9,12,15-tetraoxa-3,19-diazatetracosan-24-yl)oxy)-4-hydroxytetrahydro-2H-pyran-2-carboxylic acid] | 1000 to 10000 | 1000 to 10000
CC(=O)NCCOCCOCCOCCOCc1cn(CCCCCCO[C@]2(C(=O)O)C[C@H](O)[C@@H](NC(C)=O)[C@H]([C@H](O)[C@H](O)CNC(=O)Cc3ccc(Cl)cc3)O2)nn1 [Compound 250, (2R,4S,5R,6R)-5-acetamido-6-((1R,2R)-3-(2-(4-chlorophenyl)acetamido)-1,2-dihydroxypropyl)-4-hydroxy-2-((6-(4-(15-oxo-2,5,8,11-tetraoxa-14-azahexadecyl)-1H-1,2,3-triazol-1-yl)hexyl)oxy) tetrahydro-2H-pyran-2-carboxylic acid] | < 1000 | 1000 to 10000

More lines, now with the values ahead:

Kd [1] [nM] | Kd [2] [nM] | SMILES
< 1000 | > 10000 | C#CCOCCOP(=O)(O)OCCCCCCO[C@]1(C(=O)O)C[C@H](O)[C@@H](NC(=O)CO)[C@H]([C@H](O)[C@H](O)CNC(=O)Cc2ccc(C(F)F)cc2)O1 [Compound 215, (2R,4S,5R,6R)-6-((1R,2R)-3-(2-(4-(difluoromethyl)phenyl)acetamido)-1,2-dihydroxypropyl)-4-hydroxy-2-((6-((hydroxy(2-(prop-2-yn-1-yloxy)ethoxy)phosphoryl)oxy)hexyl)oxy)-5-(2-hydroxyacetamido)tetrahydro-2H-pyran-2-carboxylic acid]
< 1000 | 1000 to 10000 | C#CCOCCOCCNc1c(NCCCCCCO[C@]2(C(=O)O)C[C@H](O)[C@@H](NC(=O)CO)[C@H]([C@H](O)[C@H](O)CNC(=O)c3ccc(Cl)cc3)O2)c(=O)c1=O [Compound 254, (2R,4S,5R,6R)-6-((1R,2R)-3-(4-chlorobenzamido)-1,2-dihydroxypropyl)-2-((6-((3,4-dioxo-2-((2-(2-(prop-2-yn-1-yloxy)ethoxy)ethyl)amino)cyclobut-1-en-1-yl)amino)hexyl)oxy)-4-hydroxy-5-(2-hydroxyacetamido) tetrahydro-2H-pyran-2-carboxylic acid]
< 1000 | 1000 to 10000 | CC(=O)NCCOCCOCCOCCOCCn1cc(COCCCCCCO[C@]2(C(=O)O)C[C@H](O)[C@@H](NC(=O)CO)[C@H]([C@H](O)[C@H](O)CNC(=O)Cc3ccc(Cl)cc3)O2)nn1 [Compound 262, (2R,4S,5R,6R)-6-((1R,2R)-3-(2-(4-chlorophenyl)acetamido)-1,2-dihydroxypropyl)-4-hydroxy-5-(2-hydroxyacetamido)-2-((6-((1-(2-oxo-6,9,12,15-tetraoxa-3-azaheptadecan-17-yl)-1H-1,2,3-triazol-4-yl)methoxy)hexyl)oxy)tetrahydro-2H-pyran-2-carboxylic acid]
< 1000 | < 1000 | C#CCOC(=O)NCc1ccc(CO[C@]2(C(=O)O)C[C@H](O)[C@@H](NC(=O)CO)[C@H]([C@H](O)[C@H](O)CNC(=O)Cc3ccc(Cl)cc3)O2)cc1 [Compound 117, (2R,4S,5R,6R)-6-((1R,2R)-3-(2-(4-chlorophenyl)acetamido)-1,2-dihydroxypropyl)-4-hydroxy-5-(2-hydroxyacetamido)-2-((4-((((prop-2-yn-1-yloxy)carbonyl)amino)methyl)benzyl)oxy)tetrahydro-2H-pyran-2-carboxylic acid]
